Patent US10993955B2, “Medicament for use in treating diabetes” (Shandong Zhonghai Pharmaceutical CO. LTD, priority 2016, dated 2021)

System: diabetic patients
Experiment: Therapeutic effect in diabetic patients (blood glucose, urine glucose), 3 months treatment
Format: in vivo, human
From the text: The medicament hereof is used to compare the therapeutic effects in diabetic patients, and the details are as follows:
The applicant has divided 100 diabetic patients into treatment group. Among these patients, 6 are aged 16 to 30 years old, 14 are 31 to 45 years old, 28 are 46 to 60 years old, and 52 are 61 to 75 years old.
During the treatment, the patients in the treatment group discontinue the administration of any other medicaments, and only take the medicament described in Embodiment 3 hereof, once in the morning and evening, 2 g each time; the patients in the control group take D-860 Rastinon according to the package insert, and the patients in treatment group and the control group of the invention were treated and observed for 3 months, and the results are as follows: […]

[1] = diabetic patients aged 16-30, after 3 months treatment
[2] = diabetic patients aged 31-45, after 3 months treatment
[3] = diabetic patients aged 46-60, after 3 months treatment
[4] = diabetic patients aged 61-75, after 3 months treatment

Work on CCCCNC(=O)NS(=O)(=O)c1ccc(C)cc1 [D-860 Rastinon] yielded a Blood sugar [1] of 6.2 mmol/L, a Glucose in urine [1] of 1.0 mmol/L and a Blood sugar [2] of 6.5 to 6.7 mmol/L. It also gave a Glucose in urine [2] of 28.6 to 32.2 mmol/L, a Blood sugar [3] of 7.3 to 7.6 mmol/L and a Glucose in urine [3] of 31 to 35 mmol/L. It also gave a Blood sugar [4] of 9.0 to 9.2 mmol/L and a Glucose in urine [4] of 35 to 58 mmol/L.
